{"source": "ChEMBL document CHEMBL5608113", "about": "“Targeting of CAF-induced therapy resistance in CRC organoid-stroma co-cultures” (2024)"}
{"tested_on": "Colon cancer organoid", "assay": "Targeting of F14 CAF-induced therapy resistance in O14 CRC organoid-stroma co-culture. Cell viability is reported with Gefitinib.", "type": "functional, Homo sapiens", "settings": "Homo sapiens, Concentration 10 uM; read-out: Cell Viability", "units": {"viability at 10 µM": "%"}}
{"smiles": "CC(=O)Nc1c(C(C)=O)c(=O)n(C)c2nc(-c3ccc(Cl)cc3Cl)c(-c3ccc(Cl)cc3)cc12", "note": "[NAPHTHYRIDINONE]", "viability at 10 µM": 48.1}
{"smiles": "Cc1cc2c(cc1N1C(=O)c3cccc4c(CCCO)ccc(c34)C1=O)n(C)c(=O)n2C", "viability at 10 µM": 43.3}
{"smiles": "Cn1c(C2(NC(=O)c3ccc(NCC4CCCCC4)nc3)CCC2)nc2ccc(/C=C/C(=O)O)cc21", "note": "[BI 7656]", "viability at 10 µM": 45.1}
{"smiles": "O=C(N1CCS(=O)(=O)CC1)N1C[C@H](c2ccc(OC(F)(F)F)cc2)C[C@H](c2nc(C3CC3)no2)C1", "note": "[BAY-386]", "viability at 10 µM": 53.2}
{"smiles": "CC(C)C(=O)Nc1n[nH]c2cc(-c3cccc(NS(=O)(=O)C4CC4)c3)ccc12", "viability at 10 µM": 57.8}
{"smiles": "CN(C)[C@H]1CCN(c2cc(-c3ccccc3)nc3ccnn23)C1", "note": "[(S)-ZINC-3573]", "viability at 10 µM": 33.4}
{"smiles": "COc1cccc2c1C(=O)c1c(O)c3c(c(O)c1C2=O)CC(O)(C(=O)CO)CC3OC1CC(N)C(O)C(C)O1", "note": "(stereo not given)", "viability at 10 µM": 0.921}
{"smiles": "Cc1c(NC(=O)c2cc(C(N)=O)nc3cc(F)ccc23)c(C(F)(F)F)nn1Cc1ccc(C#N)cc1", "note": "[BAY-876]", "viability at 10 µM": 5.75}
{"smiles": "Cc1ccccc1Oc1cc(-n2c(=O)cc(C(F)(F)F)[nH]c2=O)c2ccccc2c1Cl", "note": "[BAY-069]", "viability at 10 µM": 40.6}
{"smiles": "Cn1c(C2(NC(=O)c3ccc4c(C5CCCC5)c(-c5ncc(Br)cn5)n(C)c4c3)CCC2)nc2ccc(/C=C/C(=O)O)cc21", "note": "[DELEOBUVIR]", "viability at 10 µM": 50.5}
{"tested_on": "Colon cancer organoid", "assay": "Targeting of F14 CAF-induced therapy resistance in O23 CRC organoid-stroma co-culture. Cell viability is reported without Gefitinib.", "type": "functional, Homo sapiens", "settings": "Homo sapiens, Concentration 10 uM; read-out: Cell Viability", "units": {"viability at 10 µM": "%"}}
{"smiles": "CC(=O)Nc1c(C(C)=O)c(=O)n(C)c2nc(-c3ccc(Cl)cc3Cl)c(-c3ccc(Cl)cc3)cc12", "note": "[NAPHTHYRIDINONE]", "viability at 10 µM": 109}
{"smiles": "Cc1cc2c(cc1N1C(=O)c3cccc4c(CCCO)ccc(c34)C1=O)n(C)c(=O)n2C", "viability at 10 µM": 150}
{"smiles": "Cn1c(C2(NC(=O)c3ccc(NCC4CCCCC4)nc3)CCC2)nc2ccc(/C=C/C(=O)O)cc21", "note": "[BI 7656]", "viability at 10 µM": 131}
{"smiles": "O=C(N1CCS(=O)(=O)CC1)N1C[C@H](c2ccc(OC(F)(F)F)cc2)C[C@H](c2nc(C3CC3)no2)C1", "note": "[BAY-386]", "viability at 10 µM": 120}
{"smiles": "CC(C)C(=O)Nc1n[nH]c2cc(-c3cccc(NS(=O)(=O)C4CC4)c3)ccc12", "viability at 10 µM": 115}
{"smiles": "CN(C)[C@H]1CCN(c2cc(-c3ccccc3)nc3ccnn23)C1", "note": "[(S)-ZINC-3573]", "viability at 10 µM": 98.9}
{"smiles": "COc1cccc2c1C(=O)c1c(O)c3c(c(O)c1C2=O)CC(O)(C(=O)CO)CC3OC1CC(N)C(O)C(C)O1", "note": "(stereo not given)", "viability at 10 µM": 3.9}
{"smiles": "Cc1c(NC(=O)c2cc(C(N)=O)nc3cc(F)ccc23)c(C(F)(F)F)nn1Cc1ccc(C#N)cc1", "note": "[BAY-876]", "viability at 10 µM": 43.8}
{"smiles": "Cc1ccccc1Oc1cc(-n2c(=O)cc(C(F)(F)F)[nH]c2=O)c2ccccc2c1Cl", "note": "[BAY-069]", "viability at 10 µM": 116}
{"smiles": "Cn1c(C2(NC(=O)c3ccc4c(C5CCCC5)c(-c5ncc(Br)cn5)n(C)c4c3)CCC2)nc2ccc(/C=C/C(=O)O)cc21", "note": "[DELEOBUVIR]", "viability at 10 µM": 112}
{"tested_on": "Colon cancer organoid", "assay": "Targeting of F14 CAF-induced therapy resistance in O23 CRC organoid-stroma co-culture. Cell viability is reported with Gefitinib.", "type": "functional, Homo sapiens", "settings": "Homo sapiens, Concentration 10 uM; read-out: Cell Viability", "units": {"viability at 10 µM": "%"}}
{"smiles": "CC(=O)Nc1c(C(C)=O)c(=O)n(C)c2nc(-c3ccc(Cl)cc3Cl)c(-c3ccc(Cl)cc3)cc12", "note": "[NAPHTHYRIDINONE]", "viability at 10 µM": 58.3}
{"smiles": "Cc1cc2c(cc1N1C(=O)c3cccc4c(CCCO)ccc(c34)C1=O)n(C)c(=O)n2C", "viability at 10 µM": 71.7}
{"smiles": "Cn1c(C2(NC(=O)c3ccc(NCC4CCCCC4)nc3)CCC2)nc2ccc(/C=C/C(=O)O)cc21", "note": "[BI 7656]", "viability at 10 µM": 77.7}
{"smiles": "O=C(N1CCS(=O)(=O)CC1)N1C[C@H](c2ccc(OC(F)(F)F)cc2)C[C@H](c2nc(C3CC3)no2)C1", "note": "[BAY-386]", "viability at 10 µM": 55.9}
{"smiles": "CC(C)C(=O)Nc1n[nH]c2cc(-c3cccc(NS(=O)(=O)C4CC4)c3)ccc12", "viability at 10 µM": 54.8}
{"smiles": "CN(C)[C@H]1CCN(c2cc(-c3ccccc3)nc3ccnn23)C1", "note": "[(S)-ZINC-3573]", "viability at 10 µM": 55.6}
{"smiles": "COc1cccc2c1C(=O)c1c(O)c3c(c(O)c1C2=O)CC(O)(C(=O)CO)CC3OC1CC(N)C(O)C(C)O1", "note": "(stereo not given)", "viability at 10 µM": 1.62}
{"smiles": "Cc1c(NC(=O)c2cc(C(N)=O)nc3cc(F)ccc23)c(C(F)(F)F)nn1Cc1ccc(C#N)cc1", "note": "[BAY-876]", "viability at 10 µM": 15}
{"smiles": "Cc1ccccc1Oc1cc(-n2c(=O)cc(C(F)(F)F)[nH]c2=O)c2ccccc2c1Cl", "note": "[BAY-069]", "viability at 10 µM": 56.6}
{"smiles": "Cn1c(C2(NC(=O)c3ccc4c(C5CCCC5)c(-c5ncc(Br)cn5)n(C)c4c3)CCC2)nc2ccc(/C=C/C(=O)O)cc21", "note": "[DELEOBUVIR]", "viability at 10 µM": 94.6}
{"tested_on": "Colon cancer organoid", "assay": "Targeting of F14 CAF-induced therapy resistance in O23 CRC organoid-stroma co-culture. Cell viability is reported with SN-38.", "type": "functional, Homo sapiens", "settings": "Homo sapiens, Concentration 10 uM; read-out: Cell Viability", "units": {"viability at 10 µM": "%"}}
{"smiles": "CC(=O)Nc1c(C(C)=O)c(=O)n(C)c2nc(-c3ccc(Cl)cc3Cl)c(-c3ccc(Cl)cc3)cc12", "note": "[NAPHTHYRIDINONE]", "viability at 10 µM": 81.5}
{"smiles": "Cc1cc2c(cc1N1C(=O)c3cccc4c(CCCO)ccc(c34)C1=O)n(C)c(=O)n2C", "viability at 10 µM": 81.8}
{"smiles": "Cn1c(C2(NC(=O)c3ccc(NCC4CCCCC4)nc3)CCC2)nc2ccc(/C=C/C(=O)O)cc21", "note": "[BI 7656]", "viability at 10 µM": 69.9}
{"smiles": "O=C(N1CCS(=O)(=O)CC1)N1C[C@H](c2ccc(OC(F)(F)F)cc2)C[C@H](c2nc(C3CC3)no2)C1", "note": "[BAY-386]", "viability at 10 µM": 74.8}
{"smiles": "CC(C)C(=O)Nc1n[nH]c2cc(-c3cccc(NS(=O)(=O)C4CC4)c3)ccc12", "viability at 10 µM": 62.1}
{"smiles": "CN(C)[C@H]1CCN(c2cc(-c3ccccc3)nc3ccnn23)C1", "note": "[(S)-ZINC-3573]", "viability at 10 µM": 49.3}
{"smiles": "COc1cccc2c1C(=O)c1c(O)c3c(c(O)c1C2=O)CC(O)(C(=O)CO)CC3OC1CC(N)C(O)C(C)O1", "note": "(stereo not given)", "viability at 10 µM": 5.38}
{"smiles": "Cc1c(NC(=O)c2cc(C(N)=O)nc3cc(F)ccc23)c(C(F)(F)F)nn1Cc1ccc(C#N)cc1", "note": "[BAY-876]", "viability at 10 µM": 39.6}
{"smiles": "Cc1ccccc1Oc1cc(-n2c(=O)cc(C(F)(F)F)[nH]c2=O)c2ccccc2c1Cl", "note": "[BAY-069]", "viability at 10 µM": 51.3}
{"smiles": "Cn1c(C2(NC(=O)c3ccc4c(C5CCCC5)c(-c5ncc(Br)cn5)n(C)c4c3)CCC2)nc2ccc(/C=C/C(=O)O)cc21", "note": "[DELEOBUVIR]", "viability at 10 µM": 60.4}
{"tested_on": "Colon cancer organoid", "assay": "Targeting of F14 CAF-induced therapy resistance in O14 CRC organoid-stroma co-culture. Cell viability is reported without Gefitinib.", "type": "functional, Homo sapiens", "settings": "Homo sapiens, Concentration 10 uM; read-out: Cell Viability", "units": {"viability at 10 µM": "%"}}
{"smiles": "CC(=O)Nc1c(C(C)=O)c(=O)n(C)c2nc(-c3ccc(Cl)cc3Cl)c(-c3ccc(Cl)cc3)cc12", "note": "[NAPHTHYRIDINONE]", "viability at 10 µM": 119}
{"smiles": "Cc1cc2c(cc1N1C(=O)c3cccc4c(CCCO)ccc(c34)C1=O)n(C)c(=O)n2C", "viability at 10 µM": 47.7}
{"smiles": "Cn1c(C2(NC(=O)c3ccc(NCC4CCCCC4)nc3)CCC2)nc2ccc(/C=C/C(=O)O)cc21", "note": "[BI 7656]", "viability at 10 µM": 101}
{"smiles": "O=C(N1CCS(=O)(=O)CC1)N1C[C@H](c2ccc(OC(F)(F)F)cc2)C[C@H](c2nc(C3CC3)no2)C1", "note": "[BAY-386]", "viability at 10 µM": 103}
{"smiles": "CC(C)C(=O)Nc1n[nH]c2cc(-c3cccc(NS(=O)(=O)C4CC4)c3)ccc12", "viability at 10 µM": 129}
{"smiles": "CN(C)[C@H]1CCN(c2cc(-c3ccccc3)nc3ccnn23)C1", "note": "[(S)-ZINC-3573]", "viability at 10 µM": 68.9}
{"smiles": "COc1cccc2c1C(=O)c1c(O)c3c(c(O)c1C2=O)CC(O)(C(=O)CO)CC3OC1CC(N)C(O)C(C)O1", "note": "(stereo not given)", "viability at 10 µM": 1.66}
{"smiles": "Cc1c(NC(=O)c2cc(C(N)=O)nc3cc(F)ccc23)c(C(F)(F)F)nn1Cc1ccc(C#N)cc1", "note": "[BAY-876]", "viability at 10 µM": 16.3}
{"smiles": "Cc1ccccc1Oc1cc(-n2c(=O)cc(C(F)(F)F)[nH]c2=O)c2ccccc2c1Cl", "note": "[BAY-069]", "viability at 10 µM": 167}
{"smiles": "Cn1c(C2(NC(=O)c3ccc4c(C5CCCC5)c(-c5ncc(Br)cn5)n(C)c4c3)CCC2)nc2ccc(/C=C/C(=O)O)cc21", "note": "[DELEOBUVIR]", "viability at 10 µM": 126}
